According to ChEMBL document CHEMBL1147167, “New 1,3-dioxolane and 1,3-dioxane derivatives as effective modulators to overcome multidrug resistance” (2007):

tested on: Caco-2; experiment: Antiproliferative activity against human Caco-2 cells assessed as cell viability by MTT assay after 48 hrs; format: functional; details: not given

| SMILES | IC10 |
| --- | --- |
| c1ccc(C(CCCCN2CCN(CCCOc3ccc(C4O[C@@H](c5ccccc5)[C@H](c5ccccc5)O4)cc3)CC2)c2ccccc2)cc1 (relative stereo) | 15.9 µM |
| CN1CCN(CCCOc2ccc(C3O[C@H](c4ccccc4)[C@@H](c4ccccc4)O3)cc2)CC1 (relative stereo) | 19.5 µM |

same assay, conditions: Homo sapiens, Caco-2, 48 h; read-out: IC10

| SMILES | IC10 |
| --- | --- |
| c1ccc(C(CCCCN2CCN(CCCOc3ccc(C4O[C@@H](c5ccccc5)[C@H](c5ccccc5)O4)cc3)CC2)c2ccccc2)cc1 | 17.1 µM |
| CN1CCN(CCCOc2ccc(C3OC(c4ccccc4Cl)C(c4ccccc4Cl)O3)cc2)CC1 (configuration not stated) | 19.5 µM |
| c1ccc(C(CCCCN2CCN(CCCCOc3ccc(C4OC(c5ccccc5)C(c5ccccc5)O4)cc3)CC2)c2ccccc2)cc1 (configuration not stated) | 17.5 µM |
| c1ccc(C(CCN2CCN(CCCOc3ccc(C4OC(c5ccccc5)C(c5ccccc5)O4)cc3)CC2)c2ccccc2)cc1 (configuration not stated) | 18.5 µM |
| c1ccc(C2OC(c3ccc(OCCCN4CCCCC4)cc3)OC2c2ccccc2)cc1 (configuration not stated) | 15.3 µM |
| CN1CCN(CCCCOc2ccc(C3OC(c4ccccc4)C(c4ccccc4)O3)cc2)CC1 (configuration not stated) | 13.8 µM |
| OCCN1CCN(CCCOc2ccc(C3OC(c4ccccc4)C(c4ccccc4)O3)cc2)CC1 (configuration not stated) | 76.6 µM |
| CN1CCN(CCCOc2ccc(C3O[C@H](c4ccccc4)[C@H](c4ccccc4)O3)cc2)CC1 (some centres not stated) | 21.1 µM |
| CC1OC(c2ccccc2)(c2ccccc2)OCC1CN1CCN(CCCCC(c2ccccc2)c2ccccc2)CC1 (configuration not stated) | 6.1 µM |
| CC1OC(c2ccccc2)(c2ccccc2)OCC1CN1CCN(C)CC1 (configuration not stated) | 9.7 µM |
| c1ccc(C(CCCCN2CCN(CCOc3ccc(C4OC(c5ccccc5)C(c5ccccc5)O4)cc3)CC2)c2ccccc2)cc1 (configuration not stated) | 14.7 µM |
| c1ccc(C(CCCN2CCN(CCCOc3ccc(C4OC(c5ccccc5)C(c5ccccc5)O4)cc3)CC2)c2ccccc2)cc1 (configuration not stated) | 12.4 µM |
| c1ccc(C(CCCCN2CCN(CCCOc3ccc(C4O[C@H](c5ccccc5)[C@H](c5ccccc5)O4)cc3)CC2)c2ccccc2)cc1 (some centres not stated) | 16.8 µM |
| c1ccc(C2(c3ccccc3)OCC(CCCCN3CCCCC3)O2)cc1 (configuration not stated) | 18.1 µM |
| CN1CCN(CCCOc2ccc(C3O[C@H](c4ccccc4)[C@@H](c4ccccc4)O3)cc2)CC1 | 20.4 µM |
| CN1CCN(CCCOc2ccc(C3OC(c4ccc(F)cc4)C(c4ccc(F)cc4)O3)cc2)CC1 (configuration not stated) | 18.8 µM |
| c1ccc(C2OC(c3ccc(OCCCN4CCN(C(c5ccccc5)c5ccccc5)CC4)cc3)OC2c2ccccc2)cc1 (configuration not stated) | 16.4 µM |
| c1ccc(C(CCCCN2CCN(CCCCC3COC(c4ccccc4)(c4ccccc4)O3)CC2)c2ccccc2)cc1 (configuration not stated) | 5.85 µM |
| c1ccc(C(CCCCN2CCN(CCCOc3ccc(C4O[C@H](c5ccccc5)[C@@H](c5ccccc5)O4)cc3)CC2)c2ccccc2)cc1 | 16.2 µM |
| c1ccc(C(CN2CCN(CCCOc3ccc(C4OC(c5ccccc5)C(c5ccccc5)O4)cc3)CC2)c2ccccc2)cc1 (configuration not stated) | 6.1 µM |
| OCCN1CCN(CCCCC2COC(c3ccccc3)(c3ccccc3)O2)CC1 (configuration not stated) | 98.3 µM |
| CN1CCN(CCCCC2COC(c3ccccc3)(c3ccccc3)O2)CC1 (configuration not stated) | 10.5 µM |
| CN1CCN(CCOc2ccc(C3OC(c4ccccc4)C(c4ccccc4)O3)cc2)CC1 (configuration not stated) | 8.6 µM |
| CN1CCN(CCCOc2ccc(C3O[C@@H](c4ccccc4)[C@H](c4ccccc4)O3)cc2)CC1 | 19.9 µM |
| CN1CCN(CCCN2c3ccccc3Sc3ccc(C(F)(F)F)cc32)CC1 [TRIFLUOPERAZINE] | 11.3 µM |
